Converted amounts (≈) assume the structure as drawn. Like-named read-outs stand apart in the source and are kept apart here.
Legend:
[1] = target: T1, murine Syk tyrosine kinase protein (GST:Syk 6-242) (Mus musculus, UniProt P48025); test: ADA method: displacement of the binding of scFv G4G11 with Syk (ELISA); conditions: read-out: In vit. inhib.: mean inhibition % of the binding of scFv G4G11 with Syk in the ADA method
T1 construct: made in house
Excerpt: The term “percentage of inhibition” of the binding of an antibody or antibody fragment with Syk protein, particularly refers to the ratio […], where A consists of the intensity of a signal proportional to the quantity of an antibody or antibody fragment bound with Syk protein in the absence of a molecule according to the invention and B the intensity of the same signal in the presence of a molecule according to the invention under the same conditions. […] This test may be performed for example according to the protocol described in example 3-2) hereinafter.
The inventors developed the ADA (Antigen Displacement Assay) method to identify small molecules capable of displacing the association with scFv G4G11 with Syk. […] To understand the mode of action of C-13, the inventors firstly identified the binding site of G4G11 using the SPOT method^16. An epitope located on the N-terminal SH2 domain of Syk, comprising amino acids 65-74 and 100% preserved in mouse, rat and human sequences, was identified.
The ADA method was then applied to each of these […] molecules to measure the ability thereof to inhibit the binding of scFv G4G11 with Syk.
(§1) • 1) Chemical products and antibodies. A chemical bank of 3000 molecules (a varied subset) was acquired from ChemBridge, Inc. (San Diego, Calif.). Stocks of solutions of small molecules were prepared at a rate of 10 mM in DMSO (dimethylsulphoxide), except for C-13 (methyl 2-{5-[(3-benzyl-4-oxo-2-thioxo-1,3-thiazolidin-5-ylidene)methyl]-2-furyl}benzoate, ChemBridge ID No. 6197026) prepared in DMF (dimethylformamide). Unless specified otherwise, all the reagents were supplied by Sigma. Dinitrophenyl (DNP) hapten was acquired from Calbiochem. Sepharose GammaBind G and all the secondary antibodies were supplied by GE Health Amersham Biosciences. The anti-Syk, anti-Lyn, anti-Btk, anti-PLC-γ1, anti-PLC-γ2, anti-LAT, anti-SLP-76, anti-p38, anti-JNK, anti-Vav, anti-Akt1 and 9E10 antibodies conjugated with HRP were acquired from Santa Cruz Biotechnology. The anti-phospho-p44/42 MAP Kinase, anti-p44/42 MAP Kinase, anti-phospho-p38, anti-phospho-JNK, anti-phospho-Akt1 antibodies were acquired from Cell Signaling. The anti-phospho-LAT and anti-phospho-PLC-γ1 antibodies were supplied by Biosource and the anti-phospho-SLP-76 antibodies by BD Pharmingen. The 4G10 anti-phosphotyrosine monoclonal antibody was acquired from Upstate Biotechnology. • 2) ADA method: ELISA type high-speed molecule screening test, based on antibody displacement (WO 2005106481). The recombinant fusion protein GST:Syk 6-242^8 comprising the residues 6 to 242 of murine Syk tyrosine kinase protein illustrated in FIG. 8B (SEQ ID No. 4) was immobilised on an ELISA plate at a final concentration of 10 μg ml^−1. For the screening of the chemical molecule bank, the small molecules, diluted in PBS at a final concentration of 10 μM were added to the wells for one hour at ambient temperature, before adding the fragment scFv G4G11 at a final concentration of 100 nM for an additional hour. The binding of G4G11 with Syk was assessed by adding the 9E10 monoclonal antibody conjugated with HRP detecting the amino acid sequence EQKLISEEDLN of human c-myc protein located at the C-terminal end of the scFv fragment. To generate Syk mutants, targeted mutagenesis was used on GST:Syk 6-242 protein and the binding of G4G11 with the mutants was assessed in the presence of 5 μM of C-13. • 3) Cells, culture conditions and functional tests. Anti-DNP 2682-I mouse monoclonal antibody was used as the culture supernatant of hybridomas containing 1 μg/ml of IgE. Femoral bone marrow cells were sampled and cultured in Opti-MEM medium (Gibco) supplemented with 10% foetal calf serum and 4% X63 transfectant supernatant secreting murine IL-3. RBL-2H3 (ATCC) leukaemic rat basophil cells were maintained in a single-layer culture in RPMI 1640 medium supplemented with 10% foetal calf serum (Gibco). […]

RBL-2H3 cells = test: cells; type: cell-based, rat; conditions: Rattus norvegicus
Method: These 87 molecules were also tested in vitro to assess the ability thereof to inhibit RBL-2H3 cell degranulation (see table 1).
as §1, with “(Gibco). Measurements of β-hexosaminidase released by the RBL-2H3 cells were performed as described previously^7, except that, after 12-16 hours of incubation with anti-DNP IgE (0.5 μg/ml), the cells were incubated for 90 min at 37° C. in RPMI medium supplemented with the specified concentrations of C-13 or DMF (0.25%). The cells were stimulated for 45 min with DNP-BSA (50 ng ml^−1) or ionomycin (1.5 μM). The BMMC cells were incubated for one hour at 37° C. with anti-DNP IgE (100 ng/ml). They were then incubated with C-13 (3 μM) or DMF (0.3%) for 3 hours at 37° C., and stimulated with varied concentrations of DNP-BSA. The level of β-hexosaminidase released was measured 10 min later and the TNF-α titration was performed by means of a cytotoxicity test on L929 cells as described previously^10, 3 hours after stimulation. The results illustrated in FIG. 3 are representative of three independent experiments. • 4) Immunoprecipitations, in vitro kinase assays and immunodetection.” for “(Gibco).”

[2] = small molecules at 10 μM, scFv G4G11 100 nM
[3] = RBL-2H3 cells, read-out: Degran. IC50: concentration inhibiting mast cell degranulation by 50%

With `COc1ccc(C2C(C(=O)c3cccs3)=C(O)C(=O)N2CCN2CCOCC2)cc1OC` (stereo not shown) [Molecule 38, 5-(3,4-dimethoxyphenyl)-3-hydroxy-1-[2-(4-morpholinyl)ethyl]-4-(2-thienylcarbonyl)-1,5-dihydro-2H-pyrrol-2-one] the inhibition at 10 µM [1, 2] was 50% and the IC50 (RBL-2H3 cells; [3]) was greater than 10 µg/mL.

For `COc1ccc(C2C(C(=O)c3ccc(Cl)cc3)=C(O)C(=O)N2CCN2CCOCC2)cc1OC` (stereo not shown) [Molecule 27, 4-(4-chlorobenzoyl)-5-(3,4-dimethoxyphenyl)-3-hydroxy-1-[2-(4-morpholinyl)ethyl]-1,5-dihydro-2H-pyrrol-2-one], the inhibition at 10 µM [1, 2] was 55% and the IC50 (RBL-2H3 cells; [3]) was greater than 10 µg/mL.

`Cc1cc(C)cc(N(CC(=O)N2CCN(Cc3ccccc3)CC2)S(=O)(=O)c2ccccc2)c1` [Molecule 40, N-[2-(4-benzyl-1-piperazinyl)-2-oxoethyl]-N-(3,5-dimethylphenyl)benzenesulphonamide] gave an inhibition at 10 µM [1] of 49.5% and an IC50 (RBL-2H3 cells; RBL-2H3, read-out: Degran. IC50: concentration inhibiting mast cell degranulation by 50%) greater than 10 µg/mL.

Work on `O=C(C1=C(O)C(=O)N(CCCN2CCOCC2)C1c1ccccc1F)c1ccc(Cl)cc1` (stereo not shown) [Molecule 44, 4-(4-chlorobenzoyl)-5-(2-fluorophenyl)-3-hydroxy-1-[3-(4-morpholinyl)propyl]-1,5-dihydro-2H-pyrrol-2-one] yielded an inhibition at 10 µM [1, 2] of 48.5% and an IC50 (RBL-2H3 cells; [3]) greater than 10 µg/mL.

Molecule `N#CC1=C(N)Oc2[nH]nc(-c3ccccc3)c2C1c1cccc(OC(=O)c2ccco2)c1` (stereo not shown) [Molecule 57, 3-(6-amino-5-cyano-3-phenyl-1,4-dihydropyrano[2,3-c]pyrazol-4-yl)phenyl 2-furoate] has an inhibition at 10 µM [1, 2] of 42% and an IC50 (RBL-2H3 cells; [3]) greater than 10 µg/mL.

`CN(C)S(=O)(=O)c1ccc(C(=O)C2=C(O)C(=O)N(CCN3CCOCC3)C2c2ccccc2)cc1` (stereo not shown) [Molecule 32, 4-({4-hydroxy-1-[2-(4-morpholinyl)ethyl]-5-oxo-2-phenyl-2,5-dihydro-1H-pyrrol-3-yl}carbonyl)-N,N-dimethylbenzenesulphonamide] showed an inhibition at 10 µM [1, 2] of 50% and an IC50 (RBL-2H3 cells; [3]) greater than 10 µg/mL.

`COc1ccc(C2C(C(=O)c3ccc(Cl)cc3)=C(O)C(=O)N2CCN2CCOCC2)cc1` (stereo not shown) [Molecule 39, 4-(4-chlorobenzoyl)-3-hydroxy-5-(4-methoxyphenyl)-1-[2-(4-morpholinyl)ethyl]-1,5-dihydro-2H-pyrrol-2-one] gave an inhibition at 10 µM [1, 2] of 50% and an IC50 (RBL-2H3 cells; [3]) greater than 10 µg/mL.

`O=C(Nc1cccc2ccccc12)OCCn1nnnc1C1(N2CCOCC2)CCCCC1` [Molecule 76, 2-{5-[1-(4-morpholinyl)cyclohexyl]-1H-tetrazol-1-yl}ethyl 1-naphthylcarbamate] gave an inhibition at 10 µM [1, 2] of 27% and an IC50 (RBL-2H3 cells; [3]) greater than 10 µg/mL.

For `COc1ccc(C2C(C(=O)c3ccco3)=C(O)C(=O)N2CCN2CCOCC2)cc1OC` (stereo not shown) [Molecule 35, 5-(3,4-dimethoxyphenyl)-4-(2-furoyl)-3-hydroxy-1-[2-(4-morpholinyl)ethyl]-1,5-dihydro-2H-pyrrol-2-one], the inhibition at 10 µM [1, 2] was 50% and the IC50 (RBL-2H3 cells; [3]) was greater than 10 µg/mL.

`COC(=O)c1sc(N2C(=O)C(O)=C(C(=O)c3ccccc3)C2c2ccc(C)cc2)nc1C` (stereo not shown) [Molecule 16, methyl 2-[3-benzoyl-4-hydroxy-2-(4-methylphenyl)-5-oxo-2,5-dihydro-1H-pyrrol-1-yl]-4-methyl-1,3-thiazole-5-carboxylate] gave an inhibition at 10 µM [1, 2] of 67% and an IC50 (RBL-2H3 cells; [3]) greater than 10 µg/mL.

`COc1cccc2cc(C(=O)C3=C(O)C(=O)N(CCCn4ccnc4)C3c3ccccn3)oc12` (stereo not shown) [Molecule 64] showed an inhibition at 10 µM [1, 2] of 37.5% and an IC50 (RBL-2H3 cells; [3]) greater than 10 µg/mL.

In the case of `CSc1nnc2c(n1)OC(c1cccc(OCc3ccccc3)c1)N(C(C)=O)c1ccccc1-2` (stereo not shown) [Molecule 63, 7-acetyl-6-[3-(benzyloxy)phenyl]-3-(methylthio)-6,7-dihydro [1,2,4] triazino[5,6-d][3,1] benzoxazepine], the inhibition at 10 µM [1, 2] is reported as 38.5% and the IC50 (RBL-2H3 cells; [3]) is reported as roughly 5 µg/mL (≈ 10.6 µM).

In the case of `COC(=O)c1ccc(NC(=O)CC2C(=O)N(c3ccccc3)C(=O)N2Cc2ccc3c(c2)OCO3)cc1` (stereo not shown) [Molecule 77, methyl 4-({[3-(1,3-benzodioxol-5-ylmethyl)-2,5-dioxo-1-phenyl-4-imidazolidinyl]acetyl}amino)benzoate], the inhibition at 10 µM [1, 2] is reported as 26% and the IC50 (RBL-2H3 cells; [3]) is reported as greater than 10 µg/mL.

Molecule `Cc1ccc(-c2nnc(N3CCN(C(=O)CSc4nc(C)cc(C)n4)CC3)c3ccccc23)cc1` [Molecule 87, 1-(4-{[(4,6-dimethyl-2-pyrimidinyl)thio]acetyl}-1-piperazinyl)-4-(4-methylphenyl) phthalazine] has an inhibition at 10 µM [1, 2] of 11% and an IC50 (RBL-2H3 cells; [3]) of roughly 5 µg/mL (≈ 10.3 µM).

Source: patent US9504676B2, “Molecules inhibiting a metabolic pathway involving the Syk protein tyrosine kinase and method for identifying said molecules” (CENTRE NATIONAL DE LA RECHERCHE SCIENTIFIQUE, priority 2008, dated 2016)
